Where two headings read alike, the source gives them in different places. Positions of bridges follow the written chain, without caps; N, C: chain ends. Non-standard residues stand in square brackets, D forms with d. Residues, ends and D or L forms follow the SMILES beside them.
Assay: Biodistribution in B16/F1 melanoma-bearing C57 mice
Type: in vivo
Conditions: female, C57, mouse, iv, total radioactivity; for tissue uptake at 2 h / tissue uptake dose at 2 h: 2 h post-injection
Procedure: All the animal studies were conducted in compliance with Institutional Animal Care and Use Committee approval. The pharmacokinetics of ^99mTc-RGD-Lys-(Arg^11)CCMSH was determined in B16/F1 melanoma-bearing C57 female mice (Harlan, Indianapolis, Ind.). C57 mice were subcutaneously inoculated on the right flank with 1×10^6 B16/F1 cells. The weight of tumors reached approximately 0.2 g 10 days post cell inoculation. Each melanoma-bearing mouse was injected with 0.037 MBq of ^99mTc-RGD-Lys-(Arg^11)CCMSH via the tail vein. Groups of 5 mice were sacrificed at 0.5, 2, 4 and 24 h post-injection, and tumors and organs of interest were harvested, weighed and counted. Blood values were taken as 6.5% of the whole-body weight. The MC1 receptor specificity of the tumor uptake was determined at 2 h post-injection by co-injecting ^99mTc-RGD-Lys-(Arg^11)CCMSH with 10 μg (6.1 nmol) of unlabeled NDP-MSH, a linear α-MSH peptide analogue with picomolar affinity for the MC1 receptors present on murine melanoma cells. The co-injection of 3.5 μg (6.1 nmol) of RGD peptide was performed to determine the αvβ3 integrin specificity of the tumor uptake 2 h post-injection. Statistical analysis was performed using the Student's t-test for unpaired data.
All the animal studies were conducted in compliance with Institutional Animal Care and Use Committee approval. The pharmacokinetics of ^99mTc-RGD-Arg-(Arg^11)CCMSH was determined in B16/F1 melanoma-bearing C57 female mice (Harlan, Indianapolis, Ind.). C57 mice were subcutaneously inoculated on the right flank with 1×10^6 B16/F1 cells. The weight of tumors reached approximately 0.2 g 10 days post cell inoculation. Each melanoma-bearing mouse was injected with 0.037 MBq of ^99mTc-RGD-Arg-(Arg^11)CCMSH via the tail vein. Groups of 5 mice were sacrificed at 0.5, 2, 4 and 24 h post-injection, and tumors and organs of interest were harvested, weighed and counted. Blood values were taken as 6.5% of the whole-body weight. The MC1 receptor specificity of the tumor uptake was determined at 2 h post-injection by co-injecting ^99mTc-RGD-Arg-(Arg^11)CCMSH with 10 μg (6.1 nmol) of unlabeled NDP-MSH. The co-injection of 3.5 μg (6.1 nmol) of RGD peptide was performed to determine the αvβ3 integrin specificity of the tumor uptake at 2 h post-injection.

tissue uptake at 0.5 h (blood, 0.037 MBq, 0.5 h post-injection, read-out: Blood, Percentage Injected Dose/gram): 3.64 ± 0.69 %ID/g | tissue uptake at 2 h (blood, 0.037 MBq, read-out: Blood, Percentage Injected Dose/gram): 0.55 ± 0.47 %ID/g | tissue uptake at 4 h (blood, 0.037 MBq, 4 h post-injection, read-out: Blood, Percentage Injected Dose/gram): 0.71 ± 0.41 %ID/g | tissue uptake at 24 h (blood, 0.037 MBq, 24 h post-injection, read-out: Blood, Percentage Injected Dose/gram): 0.24 ± 0.14 %ID/g | tissue uptake at 2 h (blood, NDP blockade (10 μg NDP-MSH co-injected), read-out: Blood, Percentage Injected Dose/gram): 0.47 ± 0.29 %ID/g | tissue uptake at 2 h (blood, RGD blockade (3.5 μg RGD co-injected), read-out: Blood, Percentage Injected Dose/gram): 0.04 ± 0.01 %ID/g | tissue uptake at 0.5 h (bone, 0.037 MBq, 0.5 h post-injection, read-out: Bone, Percentage Injected Dose/gram): 2.01 ± 0.19 %ID/g | tissue uptake at 2 h (bone, 0.037 MBq, read-out: Bone, Percentage Injected Dose/gram): 0.57 ± 0.15 %ID/g | tissue uptake at 4 h (bone, 0.037 MBq, 4 h post-injection, read-out: Bone, Percentage Injected Dose/gram): 0.97 ± 0.22 %ID/g | tissue uptake at 24 h (bone, 0.037 MBq, 24 h post-injection, read-out: Bone, Percentage Injected Dose/gram): 0.9 ± 0.39 %ID/g | tissue uptake at 2 h (bone, NDP blockade (10 μg NDP-MSH co-injected), read-out: Bone, Percentage Injected Dose/gram): 0.98 ± 0.39 %ID/g | tissue uptake at 2 h (bone, RGD blockade (3.5 μg RGD co-injected), read-out: Bone, Percentage Injected Dose/gram): 0.52 ± 0.42 %ID/g | tissue uptake at 0.5 h (brain, 0.037 MBq, 0.5 h post-injection, read-out: Brain, Percentage Injected Dose/gram): 0.16 ± 0.02 %ID/g | tissue uptake at 2 h (brain, 0.037 MBq, read-out: Brain, Percentage Injected Dose/gram): 0.06 ± 0.02 %ID/g | tissue uptake at 4 h (brain, 0.037 MBq, 4 h post-injection, read-out: Brain, Percentage Injected Dose/gram): 0.04 ± 0.03 %ID/g | tissue uptake at 24 h (brain, 0.037 MBq, 24 h post-injection, read-out: Brain, Percentage Injected Dose/gram): 0.06 ± 0.02 %ID/g | tissue uptake at 2 h (brain, NDP blockade (10 μg NDP-MSH co-injected), read-out: Brain, Percentage Injected Dose/gram): 0.06 ± 0.01 %ID/g | tissue uptake at 2 h (brain, RGD blockade (3.5 μg RGD co-injected), read-out: Brain, Percentage Injected Dose/gram): 0.04 ± 0.01 %ID/g | tissue uptake at 0.5 h (heart, 0.037 MBq, 0.5 h post-injection, read-out: Heart, Percentage Injected Dose/gram): 2.36 ± 0.37 %ID/g | tissue uptake at 2 h (heart, 0.037 MBq, read-out: Heart, Percentage Injected Dose/gram): 0.73 ± 0.27 %ID/g | tissue uptake at 4 h (heart, 0.037 MBq, 4 h post-injection, read-out: Heart, Percentage Injected Dose/gram): 0.53 ± 0.19 %ID/g | tissue uptake at 24 h (heart, 0.037 MBq, 24 h post-injection, read-out: Heart, Percentage Injected Dose/gram): 0.34 ± 0.07 %ID/g | tissue uptake at 2 h (heart, with RGD peptide, 3.5 μg (6.1 nmol) co-injected, RGD blockade (3.5 μg RGD co-injected), read-out: Heart, Percentage Injected Dose/gram): 0.55 ± 0.22 %ID/g | tissue uptake at 2 h (heart, with unlabeled NDP-MSH, 10 μg (6.1 nmol) co-injected, NDP blockade (10 μg NDP-MSH co-injected), read-out: Heart, Percentage Injected Dose/gram): 0.61 ± 0.21 %ID/g | tissue uptake dose at 0.5 h (intestines, 0.037 MBq, 0.5 h post-injection, read-out: Intestines, Percentage Injected Dose): 3.19 ± 0.22 %ID | tissue uptake dose at 2 h (intestines, 0.037 MBq, read-out: Intestines, Percentage Injected Dose): 2.57 ± 0.58 %ID | tissue uptake dose at 4 h (intestines, 0.037 MBq, 4 h post-injection, read-out: Intestines, Percentage Injected Dose): 2.62 ± 0.57 %ID | tissue uptake dose at 24 h (intestines, 0.037 MBq, 24 h post-injection, read-out: Intestines, Percentage Injected Dose): 1.01 ± 0.11 %ID | tissue uptake dose at 2 h (intestines, NDP blockade (10 μg NDP-MSH co-injected), read-out: Intestines, Percentage Injected Dose): 2.34 ± 0.52 %ID | tissue uptake dose at 2 h (intestines, RGD blockade (3.5 μg RGD co-injected), read-out: Intestines, Percentage Injected Dose): 1.79 ± 0.58 %ID | tissue uptake at 0.5 h (kidneys, 0.037 MBq, 0.5 h post-injection, read-out: Kidneys, Percentage Injected Dose/gram): 37.2 ± 4.72 %ID/g | tissue uptake at 2 h (kidneys, 0.037 MBq, read-out: Kidneys, Percentage Injected Dose/gram): 43 ± 8.14 %ID/g | tissue uptake at 4 h (kidneys, 0.037 MBq, 4 h post-injection, read-out: Kidneys, Percentage Injected Dose/gram): 36.6 ± 11.7 %ID/g | tissue uptake at 24 h (kidneys, 0.037 MBq, 24 h post-injection, read-out: Kidneys, Percentage Injected Dose/gram): 16.2 ± 4.01 %ID/g | tissue uptake at 2 h (kidneys, NDP blockade (10 μg NDP-MSH co-injected), read-out: Kidneys, Percentage Injected Dose/gram): 34.8 ± 8.46 %ID/g | tissue uptake at 2 h (kidneys, RGD blockade (3.5 μg RGD co-injected), read-out: Kidneys, Percentage Injected Dose/gram): 38.5 ± 7.45 %ID/g | tissue uptake at 0.5 h (liver, 0.037 MBq, 0.5 h post-injection, read-out: Liver, Percentage Injected Dose/gram): 4.21 ± 1.04 %ID/g | tissue uptake at 2 h (liver, 0.037 MBq, read-out: Liver, Percentage Injected Dose/gram): 3.58 ± 1.08 %ID/g | tissue uptake at 4 h (liver, 0.037 MBq, 4 h post-injection, read-out: Liver, Percentage Injected Dose/gram): 4.93 ± 0.38 %ID/g | tissue uptake at 24 h (liver, 0.037 MBq, 24 h post-injection, read-out: Liver, Percentage Injected Dose/gram): 1.89 ± 0.36 %ID/g | tissue uptake at 2 h (liver, NDP blockade (10 μg NDP-MSH co-injected), read-out: Liver, Percentage Injected Dose/gram): 2.87 ± 0.34 %ID/g | tissue uptake at 2 h (liver, RGD blockade (3.5 μg RGD co-injected), read-out: Liver, Percentage Injected Dose/gram): 2.3 ± 0.22 %ID/g | tissue uptake at 0.5 h (lung, 0.037 MBq, 0.5 h post-injection, read-out: Lung, Percentage Injected Dose/gram): 7.55 ± 1.29 %ID/g | tissue uptake at 2 h (lung, 0.037 MBq, read-out: Lung, Percentage Injected Dose/gram): 2.05 ± 0.52 %ID/g | tissue uptake at 4 h (lung, 0.037 MBq, 4 h post-injection, read-out: Lung, Percentage Injected Dose/gram): 1.01 ± 0.41 %ID/g | tissue uptake at 24 h (lung, 0.037 MBq, 24 h post-injection, read-out: Lung, Percentage Injected Dose/gram): 0.76 ± 0.14 %ID/g | tissue uptake at 2 h (lung, NDP blockade (10 μg NDP-MSH co-injected), read-out: Lung, Percentage Injected Dose/gram): 1.42 ± 0.31 %ID/g | tissue uptake at 2 h (lung, RGD blockade (3.5 μg RGD co-injected), read-out: Lung, Percentage Injected Dose/gram): 1.21 ± 0.5 %ID/g | tissue uptake at 0.5 h (muscle, 0.037 MBq, 0.5 h post-injection, read-out: Muscle, Percentage Injected Dose/gram): 1.79 ± 1.14 %ID/g | tissue uptake at 2 h (muscle, 0.037 MBq, read-out: Muscle, Percentage Injected Dose/gram): 0.21 ± 0.12 %ID/g | tissue uptake at 4 h (muscle, 0.037 MBq, 4 h post-injection, read-out: Muscle, Percentage Injected Dose/gram): 0.32 ± 0.25 %ID/g | tissue uptake at 24 h (muscle, 0.037 MBq, 24 h post-injection, read-out: Muscle, Percentage Injected Dose/gram): 0.25 ± 0.05 %ID/g | tissue uptake at 2 h (muscle, NDP blockade (10 μg NDP-MSH co-injected), read-out: Muscle, Percentage Injected Dose/gram): 0.5 ± 0.12 %ID/g | tissue uptake at 2 h (muscle, RGD blockade (3.5 μg RGD co-injected), read-out: Muscle, Percentage Injected Dose/gram): 0.28 ± 0.2 %ID/g | tissue uptake (normal organs except kidneys, 0.037 MBq, after 2 h post-injection, read-out: Normal organ uptakes except for the kidneys): < 3.6 %ID/g | tissue uptake at 0.5 h (pancreas, 0.037 MBq, 0.5 h post-injection, read-out: Pancreas, Percentage Injected Dose/gram): 1.02 ± 0.36 %ID/g | tissue uptake at 2 h (pancreas, 0.037 MBq, read-out: Pancreas, Percentage Injected Dose/gram): 0.36 ± 0.2 %ID/g | tissue uptake at 4 h (pancreas, 0.037 MBq, 4 h post-injection, read-out: Pancreas, Percentage Injected Dose/gram): 0.37 ± 0.12 %ID/g | tissue uptake at 24 h (pancreas, 0.037 MBq, 24 h post-injection, read-out: Pancreas, Percentage Injected Dose/gram): 0.19 ± 0.09 %ID/g | tissue uptake at 2 h (pancreas, NDP blockade (10 μg NDP-MSH co-injected), read-out: Pancreas, Percentage Injected Dose/gram): 0.37 ± 0.22 %ID/g | tissue uptake at 2 h (pancreas, RGD blockade (3.5 μg RGD co-injected), read-out: Pancreas, Percentage Injected Dose/gram): 0.32 ± 0.17 %ID/g | tissue uptake at 0.5 h (skin, 0.037 MBq, 0.5 h post-injection, read-out: Skin, Percentage Injected Dose/gram): 4.55 ± 1.01 %ID/g
SMILES: CC(C)[C@H](NC(=O)[C@@H]1CCCN1C(=O)[C@H](CCCNC(=N)N)NC(=O)[C@H](CS)NC(=O)[C@H](Cc1c[nH]c2ccccc12)NC(=O)[C@H](CCCNC(=N)N)NC(=O)[C@@H](Cc1ccccc1)NC(=O)[C@H](Cc1c[nH]cn1)NC(=O)[C@H](CCC(=O)O)NC(=O)[C@H](CS)NC(=O)[C@H](CS)NC(=O)[C@H](CCCNC(=N)N)NC(=O)[C@@H]1CC(=O)N[C@@H](CCCNC(=N)N)C(=O)NCC(=O)N[C@@H](CC(=O)O)C(=O)N[C@H](Cc2ccc(O)cc2)C(=O)N1)C(N)=O [^99mTc-RGD-Arg-(Arg^11)CCMSH, metal not drawn] (RGD[dY]DRCCEH[dF]RWCRPV-NH2; lactam N-5)

From patent publication US9005575B2, “Arg-Gly-Asp-conjugated alpha-melanocyte stimulating hormone hybrid peptide for use in diagnosing and treating melanoma, including metastatic melanoma and methods related to same” (STC.UNM, priority 2009, dated 2015)
